Each block holds one compound with its values, some of them ahead of it.
Assays:
SNM1B = molecular target: T1, SNM1B (Homo sapiens, UniProt Q9H816); test: real-time fluorescence-based nuclease assay, SNM1B; type: biochemical
T1 construct: for the MBL and β-CASP domains of SNM1B (aa 1–335) into baculoviral expression vectors pFB-CT10HF-LIC; made in house; host or cells: Sf9 insect cells (baculovirus)
T1 sequence (Q9H816 1-335): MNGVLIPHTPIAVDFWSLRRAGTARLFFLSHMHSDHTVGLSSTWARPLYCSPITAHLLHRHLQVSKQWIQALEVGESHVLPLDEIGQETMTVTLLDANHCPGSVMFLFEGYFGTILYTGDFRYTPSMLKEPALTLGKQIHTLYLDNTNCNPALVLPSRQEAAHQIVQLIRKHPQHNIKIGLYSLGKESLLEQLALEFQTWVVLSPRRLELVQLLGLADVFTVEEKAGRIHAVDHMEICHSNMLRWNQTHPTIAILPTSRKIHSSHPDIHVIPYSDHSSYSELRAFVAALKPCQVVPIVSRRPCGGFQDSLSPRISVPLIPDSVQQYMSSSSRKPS
Experimental: (§1) There is structural similarity between SNM1A, SNM1B, and SNM1C and major mechanistic features are likely conserved between the three nucleases. We therefore tested (13) and other hydroxamic acid analogues for inhibition of SNM1B and SNM1C. Due to differences in catalytic turnover between the three enzymes, different concentrations of SNM1B (1 nM) and SNM1C (2.5 nM) were used compared to that for SNM1A (0.5 nM) in the assays. Note that the substrate utilised for the high-throughput fluorescence based and subsequent SNM1A and SNM1B assays differed slightly for SNM1C reflecting its (primarily) endonucleolytic, rather than exonucleolytic, activity (ESI Fig. 9 ^†).
Fluorescence-based nuclease digestion SNM1A–C assays were performed as described.[30,45] […] Fluorescence was measured using a PHERAstar FSX fluorescent plate reader in fluorescent top read mode using excitation at 495 nm, emission at 525 nm, and cutoff at […]. Fluorescence spectra were measured every 140 s, for 35 min, at 37 °C. The fluorescence intensity of each well was plotted against compound concentration and fitted using a log (inhibitor) response curve using GraphPad Prism software (GraphPad Software, Inc., La Jolla, CA, USA).

SNM1C [1] = molecular target: T2, SNM1C (Homo sapiens, UniProt Q96SD1); test: real-time fluorescence-based nuclease assay, SNM1C; type: biochemical; conditions: real-time fluorescence-based nuclease assay
T2 construct: for the MBL and β-CASP domains of SNM1C (aa 1–362) into the baculovirus expression vector pBF-6HZB; made in house; host or cells: Sf9 insect cells (baculovirus)
T2 sequence (Q96SD1 1-362): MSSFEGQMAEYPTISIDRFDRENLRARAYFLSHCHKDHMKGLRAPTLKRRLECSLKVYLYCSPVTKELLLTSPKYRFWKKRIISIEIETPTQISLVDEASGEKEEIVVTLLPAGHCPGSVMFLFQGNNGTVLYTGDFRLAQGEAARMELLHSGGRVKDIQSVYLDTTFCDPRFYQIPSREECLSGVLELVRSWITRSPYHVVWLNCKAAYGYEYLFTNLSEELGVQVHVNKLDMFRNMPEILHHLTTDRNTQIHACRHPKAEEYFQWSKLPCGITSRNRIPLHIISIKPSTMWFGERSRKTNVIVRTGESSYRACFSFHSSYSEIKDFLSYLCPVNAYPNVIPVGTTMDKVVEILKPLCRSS
From the text: as §1, with “Due to differences in catalytic turnover between the three enzymes, different concentrations of SNM1B (1 nM) and SNM1C (2.5 nM) were used compared to that for SNM1A (0.5 nM) in the assays.” left out
(§2) Fluorescence-based nuclease digestion SNM1A–C assays were performed as described.[30,45] In the case of SNM1A and SNM1B, a 20-mer oligonucleotide with a 5′ FITC-conjugated-T and an internal BHQ-1 (black hole quencher) conjugated-T, eight nucleotides distal (3′) to the fluor was utilised; whereas for SNM1C a 20-mer oligonucleotide with a 5′ FITC-conjugated-T and a 3′ BHQ-1(black hole quencher) was used to capture all possible endonucleolytic incisions. Reactions (25 μL) were performed in 384 well microplates in nuclease buffer (20 mM HEPES-KOH pH 7.5, 50 mM KCl, 10 mM MgCl2, 0.5 mM TCEP, 0.05% (v/v) Triton-X, 0.1 mg mL^−1 BSA, 5% (v/v) glycerol) with SNM1A/B/C (0.1 nM SNM1A, 0.5 nM SNM1B and 1 nM SNM1C) as indicated. Proteins were incubated for 10 min at RT with the stated compound where applicable, before the reaction was initiated with the addition of 10 nM DNA substrate. […] Fluorescence spectra were measured every 140 s, for 35 min, at 37 °C. The fluorescence intensity of each well was plotted against compound concentration and fitted using a log (inhibitor) response curve using GraphPad Prism software (GraphPad Software, Inc., La Jolla, CA, USA).

solubility = type: physicochemical
SNM1A [2] = molecular target: T3, SNM1A (Homo sapiens, UniProt Q6PJP8); test: real-time fluorescence-based nuclease assay, SNM1A; type: biochemical; set-up: DNA encoding for the MBL and β-CASP domains of SNM1A (aa 676–1040) was cloned into the baculovirus transfer vector pFB-LIC-Bse; inferred from vector pFB-LIC-Bse and the IMAC purification; made in house; host or cells: Sf9 insect cells (baculovirus); conditions: resynthesised compounds
T3 sequence (Q6PJP8 676-1040): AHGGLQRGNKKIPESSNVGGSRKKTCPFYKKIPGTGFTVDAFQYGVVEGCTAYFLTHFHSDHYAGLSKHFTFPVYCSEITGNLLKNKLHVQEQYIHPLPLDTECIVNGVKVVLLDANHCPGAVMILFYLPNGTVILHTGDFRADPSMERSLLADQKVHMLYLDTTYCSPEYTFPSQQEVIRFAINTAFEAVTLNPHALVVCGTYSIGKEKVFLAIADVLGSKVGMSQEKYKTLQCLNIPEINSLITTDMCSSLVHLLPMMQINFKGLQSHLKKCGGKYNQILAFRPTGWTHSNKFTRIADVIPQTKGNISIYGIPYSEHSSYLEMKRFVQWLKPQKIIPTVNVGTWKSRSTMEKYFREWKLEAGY
Experimental: (§3) In brief, the fluorescence-based nuclease assay utilises a chemically modified 20-nucleotide ssDNA substrate with a fluorescein isothiocyanate (FITC) derived 5′-group and an internal black-hole-quencher-1 (BHQ-1), located eight nucleotides distal to the fluorescein group. In the intact substrate the BHQ-1 suppresses fluorescence, however, exonucleolytic digestion of the substrate from the 5′ end by SNM1A uncouples the BHQ-1 and FITC moieties (see Fig. 1D). Spectra were measured every 140 seconds with an increase in fluorescence indicating enzymatic activity by SNM1A (concentration: 0.1 nM).
as §2

SNM1C [3] = molecular target: T2, SNM1C; conditions: cited from earlier work
SNM1A [4] = molecular target: T3, SNM1A; set-up: DNA encoding for the MBL and β-CASP domains of SNM1A (aa 676–1040) was cloned into the baculovirus transfer vector pFB-LIC-Bse; inferred from vector pFB-LIC-Bse and the IMAC purification; made in house; host or cells: Sf9 insect cells (baculovirus); conditions: cited from earlier work
SNM1A [5] = molecular target: T3, SNM1A; test: biochemical
Experimental: as §3

[6] = tested on: γH2AX and EGFP-SNM1A foci in U2OS cells; test: microscopic analysis of damage-induced subnuclear foci, U2OS cells expressing EGFP-SNM1A; type: cell-based, human; conditions: U2OS, cisplatin treated, without 19
Experimental: To this end, cells stably expressing N-terminally EGFP-tagged SNM1A (EGFP-SNM1A) were treated with 50 μM cisplatin alone, 19 (50 μM), or with a combination of both compounds. It is known that on treatment of cells with DNA crosslinking agents, SNM1A forms subnuclear foci that are associated with ongoing sites of DNA repair.[37] […] As previously established, cisplatin treatment efficiently induces co-localisation of EGFP-SNM1A foci and γH2AX foci within 4 hours following treatment, marking sites of cisplatin damage and its repair (Fig. 6C–E). These largely resolved 24 hours post-treatment, again consistent with previous studies.[16,37] Co-treatment of cells with 19 and cisplatin saw a robust induction of SNM1A foci, consistent with the SNM1A activity being dispensable for its localisation to sites of crosslink repair, and γH2AX foci formation (Fig. 6C–E). […] This clear persistence of repair intermediates and trapping of EGFP-SNM1A at the sites of these repair intermediate implies that 19 engages with SNM1A in a cellular context, delaying the completion of cisplatin crosslink repair, which, in turn, results in the sensitisation of cells to cisplatin.
To assess the number of nuclear foci following cisplatin/inhibitor treatments, cells were plated in glass bottom dishes (as above) and allowed to attach. Following treatment, cells were fixed with 4% (v/v) formaldehyde in PBS, blocked with immunofluoresence (IF) blocking buffer (5% horse serum, 1% saponin in PBS) for 1 h, then incubated with primary antibodies at the desired concentrations in IF blocking buffer (overnight, 4 °C). After washing cells three times with PBS, cells were incubated with secondary antibodies for 2–4 hours in IF blocking buffer, washed a further 3 times with PBS then stained with Hoechst 333 258 (1 μg mL^−1 in PBS) for 30 minutes before a further three washes (all washes and incubations were performed at room temperature, unless otherwise stated).
Confocal images were obtained with a Plan APO 63X 1.40NA oil immersion objective, a pinhole setting of 1 AU, bandpass emission settings of 410–468 nm for Hoechst, 490–544 nm for EGFP, 579–624 nm for RFP or Alexa 568, and 633–695 nm for Alexa 647, a projected pixel dimension of around 110 nm × 110 nm, a pixel dwell time of 1.35 μs, and with a line averaging setting of 2. In order to ensure sufficient cell numbers (N > 300), images were acquired in a tiled 5 × 5 format corresponding to an image area of about 0.65 mm × 0.65 mm. Images were imported into ImageJ and foci were counted using a macro adjusting for staining levels between experiments. Anti-γH2AX antibodies were a mouse monoclonal (Millipore; JBW301).

[7] = tested on: γH2AX foci in RPE-1 cells; test: microscopic analysis of damage-induced subnuclear foci, RPE-1 cells; type: cell-based, human; conditions: RPE-1, cisplatin treated, without 19
Experimental: To assess the number of nuclear foci following cisplatin/inhibitor treatments, cells were plated in glass bottom dishes (as above) and allowed to attach. Following treatment, cells were fixed with 4% (v/v) formaldehyde in PBS, blocked with immunofluoresence (IF) blocking buffer (5% horse serum, 1% saponin in PBS) for 1 h, then incubated with primary antibodies at the desired concentrations in IF blocking buffer (overnight, 4 °C).
Images were imported into ImageJ and foci were counted using a macro adjusting for staining levels between experiments. Anti-γH2AX antibodies were a mouse monoclonal (Millipore; JBW301).

[8] = real-time fluorescence-based nuclease assay, read-out: SNM1A IC50

IC50 (SNM1B): 1.9 µM | IC50 (SNM1C [1]): 0.37 µM | solubility (solubility): poor solubility | IC50 (SNM1A [2]; [8]): 2.4 µM
SMILES: COc1ccc2c3c(cccc13)C(=O)N(O)C2=O [compound 1]

SMILES: CO/N=C(\C(=O)N[C@@H]1C(=O)N2C(C(=O)O)=C(CSc3nc(=O)c(=O)[nH]n3C)CS[C@H]12)c1csc(N)n1 [compound 5, ceftriaxone]
inhibition of SNM1C (potency in words) (SNM1C [3]): low μM potency | inhibition of SNM1A (potency in words) (SNM1A [4]): low μM potency

IC50 (SNM1A [5]): 17.4 µM | IC50 (SNM1A [2]; SNM1A IC50, real-time fluorescence-based nuclease assay): 129 µM | IC50 (SNM1A [2]; [8]): 110 µM
SMILES: C=CCNc1nc(N[C@@H](CC(C)C)C(=O)O)c2cc(Cl)ccc2n1 [compound 6]

SMILES: N.N.[Cl][Pt][Cl] [cisplatin, reference compound]
average number of γH2AX foci at 24 hours [6]: 21.5 ± 0.5 foci | average γH2AX foci count at 24 hours [7]: 10.4 ± 0.3 foci
